According to ChEMBL document CHEMBL1201862, “PubChem BioAssay data set” (2004):
Active and inactive are the calls of the source.

Key:
[1] = test system: HEK293; assay: HEK293T cell cytotoxicity, dose response, cytotoxicity control, ATP luminescence, cherry-pick samples (AID 687005); type: functional, cell-based; settings: Homo sapiens;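 also: cells exposed to compound for 48 hours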
[2] = HEK293 Cytotoxicity Assay Measured in Cell-Based System Using Plate Reader - 7071-01_Inhibitor_Dose_CherryPick_Activity_Set2.; type: functional
[3] = test system: Vero; assay: Vero cell toxicity, dose response, cytotoxicity control, plate reader, cherry-pick samples (AID 687020); type: functional, cell-based; settings: Chlorocebus sabaeus
[4] = cytotoxicity in OVCAR8 ovarian cancer cells, dose response, PAX8 project, cell-based, plate reader, dry powder samples (AID 743197); type: functional; settings: OVCAR-8
[5] = IGROV1 ovarian cancer cell cytotoxicity, dose response, PAX8 inhibitor project, plate reader, dry powder samples (AID 743043); type: functional, cell-based; settings: IGROV-1
[6] = molecular target: Paired box protein Pax-8 (Homo sapiens, UniProt Q06710); assay: inhibitors of PAX8-driven TPO luciferase reporter, dose response, RMG-I cells, cherry-pick (AID 687027); type: functional, cell-based;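 also: luciferase reporter driven by Pax8 target thyroperoxidase promoter measured by SteadyGlo luminescence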
[7] = A2780 ovarian cancer cell cytotoxicity, dose response, cytotoxicity control, plate reader, dry powder samples (AID 743046); type: functional, cell-based
[8] = NIH:OVCAR-3 ovarian cancer cell cytotoxicity, dose response, PAX8 inhibitor project, plate reader, dry powder samples (AID 743044); type: functional, cell-based
[9] = HEK293 cell viability, dose response, counter-screen for EBV LMP1 inhibitor project, dry powder, set 2 (AID 624374); type: functional
[10] = HEK293 cell cytotoxicity, dose response, cytotoxicity control, cherry-picks, set 5 (AID 1053117); type: functional, cell-based
[11] = MC4R antagonists, dose response, counter-screen for LGR2 antagonist project, cell-based, plate reader, cherry pick (AID 743444); type: functional;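 also: transfected HEK 293 cells stimulated with alpha-MSH peptide; potency of inhibitors of the alpha-MSH evoked signal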
[12] = A549 cell cytotoxicity, dose response, cytotoxicity control, plate reader, cherry-pick, antagonist series (AID 743412); type: functional, cell-based
[13] = LGR2 antagonists, dose response, cell-based, HEK293, CRE-luciferase reporter, cherry pick (AID 743342); type: functional
[14] = molecular target: Disintegrin and metalloproteinase domain-containing protein 17 (Homo sapiens, UniProt P78536); assay: ADAM17 protease inhibitors, dose response, counter-screen for ADAM10 exosite inhibitor project, biochemical, quenched FRET substrate (AID 743253)
[15] = ADAM10 inhibitors, peptide cleavage, dose response, biochemical, QFRET (AID 743254);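 also: ADAM10 enzyme with the DM2 quenched FRET peptide as substrate; EDANS fluorescence gain as the protease cuts the substrate; inhibitor potency against ADAM10 proteolytic activity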
[16] = T. cruzi intracellular amastigote growth inhibition, dose response, imaging, CA-I/72 strain, bovine embryo skeletal muscle, dry powder (AID 651885); type: functional, cell-based
[17] = molecular target: T1, Oxysterols receptor LXR-beta (Homo sapiens, UniProt P55055); type: functional, cell-based;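 also: agonist activity at LXR measured by a cell-based luminescence readout across a dose range, run as a counterscreen for daf-12 agonists; HEK293 cells with Gal4-LXR fusion and GAL4-driven luciferase reporter; potency for activation of Gal4-LXR reporter so compounds are agonists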
T1 sequence (P55055 whole entry): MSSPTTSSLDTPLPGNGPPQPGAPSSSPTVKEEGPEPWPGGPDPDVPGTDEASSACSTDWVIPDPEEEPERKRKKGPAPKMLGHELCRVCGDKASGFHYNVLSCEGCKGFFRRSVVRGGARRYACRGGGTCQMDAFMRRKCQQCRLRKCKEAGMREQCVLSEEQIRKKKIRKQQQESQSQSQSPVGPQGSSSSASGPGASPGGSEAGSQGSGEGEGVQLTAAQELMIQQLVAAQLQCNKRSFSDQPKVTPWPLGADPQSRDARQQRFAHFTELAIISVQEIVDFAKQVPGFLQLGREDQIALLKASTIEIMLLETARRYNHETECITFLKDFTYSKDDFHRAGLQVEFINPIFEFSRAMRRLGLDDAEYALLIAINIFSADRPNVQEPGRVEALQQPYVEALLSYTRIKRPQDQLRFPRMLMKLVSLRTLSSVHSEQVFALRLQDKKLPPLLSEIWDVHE

[18] = ARNT/TACC3 interaction disruptors, potency, confirmation, biochemical, AlphaScreen, cherry-picked samples (AID 651703); type: functional, Homo sapiens;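 also: His-tagged ARNT PAS-B domain paired with GST-TACC3 E629A dimer coactivator fragment; potency of inhibitors that break up the complex and lower AlphaScreen signal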
[19] = Luminescence Cell-Based Dose Response HTS to Identify Inhibitors of 5'UTR Stem-Loop Driven Prion Protein mRNA Translation in H4 Neuroglioblastoma Cells. [Related pubchem assays: 1827 (Project Summary), 1813 (Primary HTS)]; type: functional
[20] = AlphaScreen signal interference compounds, dose response, artefact control for ARNT-TACC3 interaction inhibitor project, biochemical, luminescence, cherry-pick (AID 651705); type: functional;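 also: AlphaScreen bead proximity signal that flags compounds interfering with the detection technology; potency reflects signal decrease which marks the compound as an assay artifact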
[21] = inhibitors of SNCA 5'UTR-driven reporter translation, confirmation, H4 neuroglioma cells, luminescence (AID 1988); type: functional, cell-based
[22] = inhibitors of firefly luciferase expression or activity, dose response, H4 neuroglioma cells, luminescence (AID 1990); type: functional, cell-based
[23] = HEK293T cytotoxicity, dose response, cytotoxicity control for miR-122 modulator project, cell-based, activator set, cherry-pick (AID 720690); type: functional;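 also: HEK293T human cells scored for general mammalian cytotoxicity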
[24] = miR-122 activators in hepatoma reporter cells, dose response, cell-based, Huh7 psiCHECK-miR122, Renilla luciferase, cherry-picked (AID 651956); type: functional;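 also: huh7 hepatoma cells stably carrying a psiCHECK-2 miR-122 sensor plasmid; renilla luciferase signal reporting endogenous miR-122 activity after 48 h compound exposure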

Chain of Paired box protein Pax-8 (Q06710 whole entry): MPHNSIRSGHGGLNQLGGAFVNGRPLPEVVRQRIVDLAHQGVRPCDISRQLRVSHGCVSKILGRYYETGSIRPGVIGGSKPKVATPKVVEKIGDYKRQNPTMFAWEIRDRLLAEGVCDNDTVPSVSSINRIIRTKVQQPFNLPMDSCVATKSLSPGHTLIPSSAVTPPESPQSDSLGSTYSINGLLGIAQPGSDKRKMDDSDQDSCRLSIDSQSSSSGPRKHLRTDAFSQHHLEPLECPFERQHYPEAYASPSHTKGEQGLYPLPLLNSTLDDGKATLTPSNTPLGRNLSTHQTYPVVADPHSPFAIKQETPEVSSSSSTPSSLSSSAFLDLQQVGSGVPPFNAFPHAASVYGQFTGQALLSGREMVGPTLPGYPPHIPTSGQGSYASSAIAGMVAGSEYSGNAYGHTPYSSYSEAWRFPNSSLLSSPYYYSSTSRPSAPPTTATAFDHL
Chain of Disintegrin and metalloproteinase domain-containing protein 17 (P78536 whole entry, the tested form may be a part): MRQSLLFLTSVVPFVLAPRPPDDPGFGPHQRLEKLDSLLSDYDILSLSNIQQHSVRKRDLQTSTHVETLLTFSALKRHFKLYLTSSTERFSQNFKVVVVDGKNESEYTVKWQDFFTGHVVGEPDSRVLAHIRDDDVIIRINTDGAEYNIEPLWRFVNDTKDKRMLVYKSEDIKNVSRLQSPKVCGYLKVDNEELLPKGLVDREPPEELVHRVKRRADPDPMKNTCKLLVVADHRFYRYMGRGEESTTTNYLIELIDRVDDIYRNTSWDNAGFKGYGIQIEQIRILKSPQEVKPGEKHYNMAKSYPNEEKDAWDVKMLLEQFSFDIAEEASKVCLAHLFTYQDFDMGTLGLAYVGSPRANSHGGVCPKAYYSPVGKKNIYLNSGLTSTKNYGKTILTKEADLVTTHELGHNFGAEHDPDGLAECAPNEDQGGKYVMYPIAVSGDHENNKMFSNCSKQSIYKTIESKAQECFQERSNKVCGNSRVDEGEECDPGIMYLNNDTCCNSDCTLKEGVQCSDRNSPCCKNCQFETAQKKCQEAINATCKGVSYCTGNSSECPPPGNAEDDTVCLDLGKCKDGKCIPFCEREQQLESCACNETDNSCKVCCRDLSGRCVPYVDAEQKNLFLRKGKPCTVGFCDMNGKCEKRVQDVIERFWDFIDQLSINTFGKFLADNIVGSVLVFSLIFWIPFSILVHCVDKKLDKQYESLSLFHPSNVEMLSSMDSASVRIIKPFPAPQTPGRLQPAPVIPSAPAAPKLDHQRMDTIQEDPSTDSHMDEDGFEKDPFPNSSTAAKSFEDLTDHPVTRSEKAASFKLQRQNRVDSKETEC

## O=C(N[C@@H]1CC[C@@H](CCn2cc(-c3ccccc3)nn2)O[C@H]1CO)c1cnccn1
[1]
  AC50: 21.8 µM (active)
[2]
  AC50: 21.8 µM (active)

## COc1ccccc1-c1noc2c1C(=O)N(Cc1cn(Cc3ccccc3)nn1)CC2
[3]
  AC50: 32.2 µM (active)

## COc1ccc(S(=O)(=O)N(C)C[C@H]2Oc3cc(C#CC4CCCC4)ccc3S(=O)(=O)N([C@@H](C)CO)C[C@@H]2C)cc1
[4]
  AC50: 31.3 µM (active)
[5]
  AC50: 57.4 µM (active)
[6]
  AC50: 6.49 µM (active)
[7]
  AC50: 8.96 µM (active)
[8]
  AC50: 21.4 µM (active)

## O=C(Cc1ccccn1)NCC[C@@H]1CC[C@@H](NC(=O)Nc2ccc(Cl)cc2)[C@@H](CO)O1
[9]
  AbsAC35: 83.87 µM

## COc1cccc(-c2ccc3c(c2)[C@H]2[C@H](CCN2S(=O)(=O)c2cccc(OC)c2)[C@H](CO)N3)c1
[10]
  AC50: 26.9 µM (active)

## C[C@H](CO)N1C[C@H](C)[C@H](CN(C)C(=O)Nc2cccc3ccccc23)OCCCC[C@H](C)Oc2ccc(NC(=O)c3ccccc3)cc2C1=O
[11]
  AC50: 52.5 µM (active)
[12]
  AC50: 48 µM (active)
[13]
  AC50: 4.88 µM (active)

## Nc1[nH]c(C(=O)c2ccccc2)c(-c2cccc(C(F)(F)F)c2)c1C(=O)NCCc1c[nH]c2ccccc12
[14]
  IC50: > 69.6 µM (inactive)
[15]
  IC50: > 7.73 µM (active)

## C[C@H]1CN([C@@H](C)CO)C(=O)c2cccc(NC(=O)c3ccncc3)c2O[C@@H]1CN(C)Cc1ccc(C(=O)O)cc1
[16]
  IC50: > 20 µM (inactive)

## Cc1ccc(/C=N/NC(=O)c2ccccn2)s1
[17]
  EC50: > 67.6 µM (inactive)

## O=c1oc2ccccc2c(O)c1/C=N/Cc1ccccn1
[18]
  AC50: 109 µM (active)

## C(=N\Nc1ccc2nncn2n1)/c1ccccn1
[19]
  EC50: 11.8 µM (active)
[20]
  AC50: 110 µM (active)
[21]
  EC50: > 120 µM (not active)
[22]
  EC50: > 120 µM (not active)

## CC(=O)/N=c1\scc(-c2ccccc2)n1-c1cccc(O)c1
[23]
  AC50: 44.8 µM (active)
[24]
  AC50: 25.1 µM (active)
